The results in this text go back to article PMC10814857, “Functional Classification and Interaction Selectivity Landscape of the Human SH3 Domain Superfamily” (Cells, 2024).

What all share (test): Fluorescence polarization SH3 domain-PRP binding
Common to all, as to details: FP, 0.2 µM fluorescein-labeled peptide, SH3 domain 0-200 µM, Tris/HCl pH 7.5, 25 °C, quadratic fit

Test [1] has as its target T1, ARHGAP12 SH3 domain (aa 12-74) (Homo sapiens, UniProt Q8IWW6).
T1 construct: 12-74; GST (N); made in house; host or cells: Escherichia coli CodonPlus, Rosetta, BL21(DE3)
T1 sequence (Q8IWW6 12-74): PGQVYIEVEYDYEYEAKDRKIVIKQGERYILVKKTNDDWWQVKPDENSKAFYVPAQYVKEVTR
The procedure:
(§1) The interaction between fluorescein-labeled proline-rich peptides (0.2 µM) and increasing concentrations of SH3 domains (ranging from 0 to 200 µM) was measured in a buffer (containing 30 mM Tris/HCl (pH 7.5), 5 mM MgCl2, and 3 mM DTT at 25 °C) in a total volume of 200 µL using a Fluoromax 4 fluorimeter in polarization mode and a quartz glass fluorescence cuvette (Hellma Ultra-Micro Cuvette 105.250-QS, Thermo Fisher Scientific, Waltham, MA USA). Excitation was performed at 470 nm and emission was measured at 560 nm. Dissociation constants (Kd) were determined by fitting the concentration-dependent binding curve to a quadratic ligand binding equation.
(§2) Fluorescence polarization measurements were performed to determine the binding affinities of SH3 domain–PRP interaction pairs from the dot blot analysis. SH3 proteins were titrated at increasing concentrations against fluorescent PRPs, which were kept at a constant concentration of 0.2 µM. GRB2-2^W193K, which is defective in the binding of PRPs such as RP1, was used as a negative control as previously described. […] The resulting data (Figure S6) allowed the evaluation of equilibrium dissociation constants (Kd) for 45 interactions between the SH3 domains and the PRPs (Figure 2B; Table S6).
(§3) Figure S6. Interactions of the SH3 domains with fluorescent PRPs measured by fluorescence polarization.
(§4) Fluorescent peptides (0.2 µM) were titrated with increasing concentrations of the corresponding SH3 domains.
(§5) GRB2-2W193K, defective in the binding of PRPs such as RP1, was used as a negative control as previously described. The x-axis represents SH3 domain concentrations as GST fusion proteins in µM, while the y-axis represents fluorescence polarization. The equilibrium dissociation constants (Kd) for the respective measurements were determined by fitting the titration curves to a quadratic ligand-binding equation (solid lines). All Kd values are […]
(§6) Error bars are derived from the fitting errors.
(§7) (1 picture or pasted object on this page, not shown here)

For test [2], the target named is T2, DLG2 SH3 domain (aa 536-606) (Homo sapiens, UniProt Q15700).
T2 construct: 536-606; GST (N); made in house; host or cells: Escherichia coli CodonPlus, Rosetta, BL21(DE3)
T2 sequence (Q15700 536-606): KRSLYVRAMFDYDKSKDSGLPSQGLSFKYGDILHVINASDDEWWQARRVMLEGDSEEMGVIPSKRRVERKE
The procedure: as §1, §2, §3, §4, §5, §6, §7

Test [3] addresses T3, ITSN1-3 SH3 domain (aa 1002-1060) (Homo sapiens, UniProt Q15811).
T3 construct: 1002-1060; GST (N); made in house; host or cells: Escherichia coli CodonPlus, Rosetta, BL21(DE3)
T3 sequence (Q15811 1002-1060): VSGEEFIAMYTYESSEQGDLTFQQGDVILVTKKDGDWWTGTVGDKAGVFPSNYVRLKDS
The protocol:
as §1, §2, §3, §4, §5, §6, §7

The target in test [4] is T4, ARHGEF30 (OBSCN) SH3 domain (aa 5600-5667) (Homo sapiens, UniProt Q5VST9).
T4 construct: 5600-5667; GST (N); made in house; host or cells: Escherichia coli CodonPlus, Rosetta, BL21(DE3)
T4 sequence (Q5VST9 5600-5667): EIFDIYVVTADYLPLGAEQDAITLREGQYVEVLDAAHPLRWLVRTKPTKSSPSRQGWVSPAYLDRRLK
The protocol: as §1, §2, §3, §4, §5, §6, §7

The target in test [5] is T5, ABL2 SH3 domain (aa 107-167) (Homo sapiens, UniProt P42684).
T5 construct: 107-167; GST (N); made in house; host or cells: Escherichia coli CodonPlus, Rosetta, BL21(DE3)
The procedure: as §1, §2, §3, §4, §5, §6, §7

The target of test [6] is T6, ITSN1-2 SH3 domain (aa 913-971) (Homo sapiens, UniProt Q15811).
T6 construct: 913-971; GST (N); made in house; host or cells: Escherichia coli CodonPlus, Rosetta, BL21(DE3)
T6 sequence (Q15811 913-971): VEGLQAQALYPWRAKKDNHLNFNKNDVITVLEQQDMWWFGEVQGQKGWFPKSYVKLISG
The procedure: as §1, §2, §3, §4, §5, §6, §7

In test [7] the target is T7, CRK-1 SH3 domain (aa 132-192) (Homo sapiens, UniProt P46108).
T7 construct: 132-192; GST (N); made in house; host or cells: Escherichia coli CodonPlus, Rosetta, BL21(DE3)
The protocol:
as §1, §2, §3, §4, §5, §6, §7

Test [8] concerns the target T8, GRB2-1 SH3 domain (aa 1-58) (Homo sapiens, UniProt P62993).
T8 construct: 1-58; GST (N); made in house; host or cells: Escherichia coli CodonPlus, Rosetta, BL21(DE3)
The protocol: as §1, §2, §3, §4, §5, §6, §7

Test [9] addresses T9, ITSN1-1 SH3 domain (aa 740-806) (Homo sapiens, UniProt Q15811).
T9 construct: 740-806; GST (N); made in house; host or cells: Escherichia coli CodonPlus, Rosetta, BL21(DE3)
T9 sequence (Q15811 740-806): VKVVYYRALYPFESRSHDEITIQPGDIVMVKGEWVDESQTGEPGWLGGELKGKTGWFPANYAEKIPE
The procedure:
as §1, §2, §3, §4, §5, §6, §7

Test [10] deals with T10, BIN1 SH3 domain (aa 520-593) (Homo sapiens, UniProt O00499).
T10 construct: 520-593; GST (N); made in house; host or cells: Escherichia coli CodonPlus, Rosetta, BL21(DE3)
T10 sequence (O00499 520-593): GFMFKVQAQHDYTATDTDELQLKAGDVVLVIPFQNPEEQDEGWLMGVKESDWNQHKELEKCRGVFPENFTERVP
The protocol: as §1, §2, §3, §4, §5, §6, §7

The target in test [11] is T11, ABI1 SH3 domain (aa 446-505) (Homo sapiens, UniProt Q8IZP0).
T11 construct: 446-505; GST (N); made in house; host or cells: Escherichia coli CodonPlus, Rosetta, BL21(DE3)
The procedure: as §1, §2, §3, §4, §5, §6, §7

The target of test [12] is T12, SH3PXD2A-1 SH3 domain (aa 166-225) (Homo sapiens, UniProt Q5TCZ1).
T12 construct: 166-225; GST (N); made in house; host or cells: Escherichia coli CodonPlus, Rosetta, BL21(DE3)
T12 sequence (Q5TCZ1 166-225): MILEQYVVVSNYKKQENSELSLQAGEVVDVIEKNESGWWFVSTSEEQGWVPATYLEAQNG
The method in brief: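 Kd values derive from fitting polarization titration curves to a quadratic ligand-binding equation. Constant 0.2 µM fluorescein-PRP was mixed with rising GST–SH3 domain levels up to 200 µM in Tris/HCl pH 7.5 buffer containing MgCl2 and DTT, at 25 °C.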

Structures are written as SMILES. Peptide text beside a SMILES is read from it. A value given as a limit tells only on which side of the number the result lay.

T11 sequence (Q8IZP0 446-505): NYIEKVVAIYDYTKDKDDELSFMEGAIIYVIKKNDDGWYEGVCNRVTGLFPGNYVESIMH
T8 sequence (P62993 1-58): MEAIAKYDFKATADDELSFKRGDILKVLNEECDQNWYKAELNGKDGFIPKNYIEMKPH
T7 sequence (P46108 132-192): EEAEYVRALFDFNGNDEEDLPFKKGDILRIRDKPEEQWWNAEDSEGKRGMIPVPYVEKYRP
T5 sequence (P42684 107-167): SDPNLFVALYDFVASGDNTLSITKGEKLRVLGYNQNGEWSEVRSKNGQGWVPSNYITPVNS

`CC(C)C[C@H](NC(=O)[C@@H]1CCCN1C(=O)[C@@H](NC(=O)[C@H](CCCNC(=N)N)NC(=O)[C@@H]1CCCN1C(=O)[C@H](CO)NC(=O)[C@H](CC(N)=O)NC(=O)[C@@H]1CCCN1C(=O)[C@H](C)NC(=O)[C@@H](N)CO)[C@@H](C)O)C(=O)N[C@H](C(=O)N1CCC[C@H]1C(=O)N1CCC[C@H]1C(=O)N1CCC[C@H]1C(=O)N[C@@H](C)C(=O)N[C@@H](CO)C(=O)O)[C@@H](C)O` [Peptide P1] (H-SAPNSPRTPLTPPPAS-OH): the Kd in test [1], in test [2], in test [3], in test [4], in [5] and in test [6] was above 200 µM throughout. The Kd in test [7], in test [8], in test [9], in test [10], in test [11] and in test [12] was above 200 µM in each case.

Take `CC(C)C[C@H](NC(=O)[C@@H](NC(=O)[C@@H](N)C(C)C)[C@@H](C)O)C(=O)N1CCC[C@H]1C(=O)N[C@@H](Cc1c[nH]cn1)C(=O)NCC(=O)N1CCC[C@H]1C(=O)N[C@@H](CCCNC(=N)N)C(=O)N[C@@H](CO)C(=O)N[C@@H](C)C(=O)O` [Peptide P2] (H-VTLPHGPRSA-OH): the Kd in test [1], in test [2], in test [3], in test [4], in [5] and in test [6] was above 200 µM throughout. Moreover, the Kd in [7] is above 200 µM; in [8], above 200 µM; in test [9], above 200 µM; in test [10] it was above 200 µM; in test [11] it was 60.7 µM; in test [12], 44 µM.

On to `CC(C)[C@H](NC(=O)[C@@H]1CCCN1C(=O)[C@@H]1CCCN1C(=O)[C@H](C)NC(=O)[C@H](CCC(=O)O)NC(=O)[C@H](CS)NC(=O)[C@@H](N)CCCNC(=N)N)C(=O)N1CCC[C@H]1C(=O)N1CCC[C@H]1C(=O)N[C@@H](CCCNC(=N)N)C(=O)N[C@@H](CCCNC(=N)N)C(=O)N[C@@H](CCC(=O)O)C(=O)N[C@@H](CCCNC(=N)N)C(=O)NCC(=O)O` [RP2, reference compound] (H-RCEAPPVPPRRERG-OH), for which the Kd was 15.5 µM in [1]; above 200 µM in test [2]; above 200 µM in test [3]; above 200 µM in [4]; above 200 µM in test [5]; above 200 µM in [6]. Also, the Kd in test [7] was above 200 µM; in test [8], 20 µM; in [9], 11 µM; in test [10], 48 µM; in [11], above 200 µM; in test [12] it was 21 µM.
